Measurements taken from US20230000813A1, “COMPOUND FOR THE TREATMENT OF BOVINE OR SWINE RESPIRATORY DISEASE” (Intervet Inc., priority 2016, published 2023).
≈ marks a conversion by molar mass, not a printed value. Like-named read-outs stand apart in the source and are kept apart here.

What was measured:
Format in all cases: cell-based
[1] = tested on: Mannheimia haemolytica MH 10720 (154, BRD field isolate); assay: MIC, broth-microdilution (CLSI VET01-A4)
Procedure, shortened: (§1)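 Doubling dilution series in microdilution trays; endpoint = lowest conc. without visible growth (no turbidity, unaided eye); interpretation per CLSI VET01-S3.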

[2] = tested on: Mannheimia haemolytica MH 12587 (1071, BRD field isolate, macrolide-resistance: erm+, E+); assay: MIC, broth-microdilution (CLSI VET01-A4); conditions: for MIC MH 12587: Mannheimia haemolytica MH 12587, macrolide-resistant
Procedure, shortened: as §1

[3] = tested on: Mannheimia haemolytica MH 6357 (M7/2, reference strain, cattle infection strain); assay: MIC, broth-microdilution (CLSI VET01-A4)
Procedure, shortened: as §1

[4] = tested on: Mannheimia haemolytica MH 6374 (ATCC 33396, reference strain); assay: MIC, broth-microdilution (CLSI VET01-A4)
Procedure, shortened: as §1

[5] = tested on: Pasteurella multocida PM 10775 (080130003051, BRD field isolate); assay: MIC, broth-microdilution (CLSI VET01-A4); conditions: for MIC: strain PM 10775
Procedure, shortened: as §1

[6] = tested on: Pasteurella multocida PM 12080 (IV102277-0093, BRD field isolate); assay: MIC, broth-microdilution (CLSI VET01-A4); conditions: for MIC PM 12080: Pasteurella multocida PM 12080; for MIC: strain PM 12080
Procedure, shortened: as §1

[7] = tested on: Pasteurella multocida PM 6267 (P 2225 (L386), reference strain, mouse infection strain); assay: MIC, broth-microdilution (CLSI VET01-A4); conditions: for MIC PM 6267: Pasteurella multocida PM 6267; for MIC: strain PM 6267
Procedure, shortened: as §1

[8] = tested on: Pasteurella multocida PM 6391 (ATCC 43137, reference strain); assay: MIC, broth-microdilution (CLSI VET01-A4); conditions: for MIC: strain PM 6391
Procedure, shortened: as §1

[9] = tested on: Mannheimia haemolytica MH 13065 (XB0446-6003.9, BRD field isolate); assay: MIC, broth-microdilution (CLSI VET01-A4)
Procedure, shortened: (§2)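 MIC read by eye as lowest compound concentration without visible growth (no turbidity), interpreted per CLSI VET01-S3. Doubling-dilution broth-microdilution trays, run according to CLSI VET01-A4.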

[10] = tested on: Mannheimia haemolytica MH 13093 (XB0472-6014.1, BRD field isolate); assay: MIC, broth-microdilution (CLSI VET01-A4)
Procedure, shortened: as §2

[11] = tested on: Acinetobacter baumanii AB 15919 (IV369-2012, dermatitis field isolate); assay: MIC, broth-microdilution (CLSI VET01-A4); conditions: strain AB 15919
Experimental: (§3) The Minimum inhibitory concentrations (MIC) of compounds according to the invention were determined by the broth-microdilution method according to CLSI document VET01-A4.
(§4) Microdilution trays containing a doubling dilution series of the test compound were used for the tests.
(§5) The MIC results were interpreted according to the CLSI documents VET01-S3. The lowest concentration of compound at which no visible growth (i.e. no turbidity) detected by the unaided eye was recorded as the MIC.

[12] = tested on: Acinetobacter baumanii AB 16496 (ATCC 19606, reference strain); assay: MIC, broth-microdilution (CLSI VET01-A4); conditions: strain AB 16496
Experimental: as §3, §4, §5

[13] = tested on: Mannheimia haemolytica MH 12180 (KLI-02944, BRD field isolate); assay: MIC, broth-microdilution (CLSI VET01-A4); conditions: strain MH 12180
Experimental: as §3, §4, §5

[14] = tested on: Pasteurella multocida PM 14426 (0006-439, BRD field isolate, macrolide-resistant); assay: MIC, broth-microdilution (CLSI VET01-A4); conditions: strain PM 14426, macrolide-resistant
Experimental: as §3, §4, §5

[15] = tested on: Staphylococcus aureus SA 5816 (2139, mastitis field isolate); assay: MIC, broth-microdilution (CLSI VET01-A4); conditions: strain SA 5816
Experimental: as §3, §4, §5

[16] = tested on: Staphylococcus aureus SA 6114 (ATCC 29213, reference strain); assay: MIC, broth-microdilution (CLSI VET01-A4); conditions: strain SA 6114
Experimental: as §3, §4, §5

[17] = tested on: 20 isolates of Actinobacillus (A.) pleuropneumoniae; assay: MIC50/MIC90, broth-microdilution, European respiratory tract isolates
Experimental: (§6) The in vitro activity of compounds against 20 isolates of Actinobacillus (A.) pleuropneumoniae, 20 of Bordetella (B.) bronchiseptica, 20 of Histophilus (H.) somni, 40 of Mannheimia (M.) haemolytica and 40 of Pasteurella (P.) multocida collected in different European countries were determined. All bacteria were isolated from the respiratory tract of swine and cattle suffering from respiratory disease. All isolates were epidemiologically unrelated as specified by the different suppliers.
(§7) The minimum inhibitory concentrations (MIC) of compounds according to the invention were determined by the broth-microdilution method according to CLSI document VET01-A4.
(§8) Microdilution trays containing a doubling dilution series of the test compounds were used for the tests.
as §5

[18] = tested on: 20 isolates of Bordetella (B.) bronchiseptica; assay: as above
Experimental: as §6, §7, §8, §5

[19] = tested on: 20 isolates of Histophilus (H.) somni; assay: as above
Experimental: as §6, §7, §8, §5

[20] = tested on: 40 isolates of Mannheimia (M.) haemolytica; assay: as above
Experimental: as §6, §7, §8, §5

[21] = tested on: 40 isolates of Pasteurella (P.) multocida; assay: as above
Experimental: as §6, §7, §8, §5

[22] = tested on: 15 isolates of H. parasuis; assay: MIC50/MIC90, agar-dilution method (GC agar base); conditions: Haemophilus parasuis
Experimental: The in vitro activity of 3 representative compounds of this invention against 15 isolates of H. parasuis was determined. All strains were isolated from the respiratory tract of swine in different European countries The MICs for all isolates were determined by using the agar-dilution method according to CLSI document VET01-A4 [1]with the following modification: GC agar base was used instead of Mueller-Hinton agar base for the preparation of the agar-dilution plates. Results were interpreted according to the CLSI document VET01-S3.

[23] = Mannheimia haemolytica MH 6374, read-out: MIC MH 6374

Structure (SMILES)	MIC ([1]; strain MH 10720)	MIC MH 12587 [2]	MIC ([3]; strain MH 6357)	MIC [4, 23]	MIC ([4]; strain MH 6374)	MIC [5]	MIC PM 12080 [6]	MIC [6]	MIC PM 6267 [7]	MIC [7]	MIC [8]	MIC [10]	MIC [11]	MIC [12]	MIC [13]	MIC [14]	MIC [15]	MIC [16]	MIC50 [17]	MIC90 [17]	also measured
CC(C)(N)C(NC(=O)c1ccc(C#Cc2ccc(CNCc3ccncc3)cc2)cc1)C(=O)NO (stereo not shown) [C. 320]	0.25 µg/mL	1.6 µM (≈ 0.754 µg/mL)	0.5 µg/mL	0.8 µM	0.25 µg/mL	≤0.016 µg/mL	<=0.1 μM	≤0.016 µg/mL	<=0.1 μM	≤0.016 µg/mL	0.032 µg/mL (≈ 0.0679 µM)	1.6 µM (≈ 0.754 µg/mL)	16 µg/mL (≈ 33.9 µM)	>16 µg/mL	0.5 µg/mL (≈ 1.06 µM)	≤0.016 µg/mL	>16 µg/mL	>16 µg/mL	0.5 µg/mL (≈ 1.06 µM)	0.5 µg/mL (≈ 1.06 µM)	MIC ([1]; Mannheimia haemolytica MH 10720, read-out: MIC MH 10720): 0.4 µM; MIC ([2]; strain MH 12587, macrolide-resistant): 0.5 µg/mL (≈ 1.06 µM); MIC ([3]; Mannheimia haemolytica MH 6357, read-out: MIC MH 6357): 0.8 µM; MIC PM 10775 ([5]; Pasteurella multocida PM 10775): <=0.1 μM; MIC [9]: 0.8 µM (≈ 0.377 µg/mL); MIC50 [18]: 2 µg/mL (≈ 4.24 µM); MIC90 [18]: 2 µg/mL (≈ 4.24 µM); MIC50 [19]: 0.063 µg/mL (≈ 0.134 µM); MIC90 [19]: 0.125 µg/mL (≈ 0.265 µM); MIC50 [20]: 0.5 µg/mL (≈ 1.06 µM); MIC90 [20]: 0.5 µg/mL (≈ 1.06 µM); MIC50 [21]: ≤0.016 µg/mL; MIC90 [21]: 0.032 µg/mL (≈ 0.0679 µM); MIC50 [22]: 2 µg/mL (≈ 4.24 µM); MIC90 [22]: 4 µg/mL (≈ 8.48 µM)
C[C@@H](O)[C@H](NC(=O)c1ccc(C#Cc2ccc(CNCC(F)(F)F)cc2)cc1)C(=O)NO [C. 467]	≤0.016 µg/mL	0.4 µM (≈ 0.18 µg/mL)	0.125 µg/mL	0.2 µM	0.063 µg/mL	≤0.016 µg/mL	<=0.1 μM	≤0.016 µg/mL	<=0.1 μM	0.032 µg/mL (≈ 0.0712 µM)	0.032 µg/mL (≈ 0.0712 µM)	0.4 µM (≈ 0.18 µg/mL)	>16 µg/mL	>16 µg/mL	0.032 µg/mL (≈ 0.0712 µM)	≤0.016 µg/mL	>16 µg/mL	>16 µg/mL	0.032 µg/mL (≈ 0.0712 µM)	0.063 µg/mL (≈ 0.14 µM)	MIC MH 6357 ([3]; Mannheimia haemolytica MH 6357): <=0.1 μM; MIC PM 6391 ([8]; Pasteurella multocida PM 6391): <=0.1 μM; MIC50 [18]: 2 µg/mL (≈ 4.45 µM); MIC90 [18]: 2 µg/mL (≈ 4.45 µM); MIC50 [19]: ≤0.016 µg/mL; MIC90 [19]: ≤0.016 µg/mL; MIC50 [20]: 0.032 µg/mL (≈ 0.0712 µM); MIC90 [20]: 0.063 µg/mL (≈ 0.14 µM); MIC50 [21]: ≤0.016 µg/mL; MIC90 [21]: ≤0.016 µg/mL; MIC50 [22]: 0.125 µg/mL (≈ 0.278 µM); MIC90 [22]: 0.25 µg/mL (≈ 0.556 µM)
